Drawing on US7745636B2, “Hepatitis C virus inhibitors” (Bristol-Myers Squibb Company, priority 2006, dated 2010), this text covers EC50 for 18 compounds.

The test system of the experiment is HCV 1b-377-neo replicon cells. The experiment is described as follows: HCV Replicon assay, HCV 1b-377-neo replicon cells. It is filed as cell-based, HCV 1b genotype. The conditions noted are these: Hepatitis C virus, Table 2, read-out: Range (EC50 against HCV 1b). (In general: In antiviral work, replicon cells carry a viral genome segment that copies itself.)
For the compound `O=C([C@@H](c1ccccc1)N1CCCCC1)N1CCC[C@H]1c1ncc(-c2ccc(-c3ncc(-c4cnc([C@@H]5CCCN5C(=O)[C@@H](c5ccccc5)N5CCCCC5)[nH]4)cn3)cc2)[nH]1` [Example 152j-5, 5-(2-((2S)-1-((2R)-2-phenyl-2-(1-piperidinyl)acetyl)-2-pyrrolidinyl)-1H-imidazol-5-yl)-2-(4-(2-((2S)-1-((2R)-2-phenyl-2-(1-piperidinyl)acetyl)-2-pyrrolidinyl)-1H-imidazol-4-yl)phenyl)pyrimidine], the EC50 (as a rule, the concentration that produces a half-maximal response) is 0.001 to 0.999 nM.

Consider `C[C@@H](c1ncc(-c2ccc(-c3ncc(-c4cnc([C@@H]5CCCN5C(=O)[C@@H](c5ccccc5)N5CCCCC5)[nH]4)cn3)cc2)[nH]1)N(C)C(=O)[C@@H](c1ccccc1)N1CCCCC1` [Example 152j-6, (2R)-N-methyl-2-phenyl-N-((1S)-1-(4-(4-(5-(2-((2S)-1-((2R)-2-phenyl-2-(1-piperidinyl)acetyl)-2-pyrrolidinyl)-1H-imidazol-5-yl)-2-pyrimidinyl)phenyl)-1H-imidazol-2-yl)ethyl)-2-(1-piperidinyl)acetamide], for which the EC50 fell in the range of 0.001 to 0.999 nM. For the compound `CN(C)[C@@H](C(=O)N1CCC[C@H]1c1ncc(-c2ccc(-c3cnc(-c4cnc([C@@H]5CCCN5C(=O)[C@@H](c5ccccc5)N(C)C)[nH]4)cn3)cc2)[nH]1)c1ccccc1` [Example 152j-7, (1R)-2-((2S)-2-(5-(5-(4-(2-((2S)-1-((2R)-2-(dimethylamino)-2-phenylacetyl)-2-pyrrolidinyl)-1H-imidazol-5-yl)phenyl)-2-pyrazinyl)-1H-imidazol-2-yl)-1-pyrrolidinyl)-N,N-dimethyl-2-oxo-1-phenylethanamine], the EC50 fell in the range of 1 to 99 nM. With `COC(=O)N[C@@H](C(=O)N1CCC[C@H]1c1ncc(-c2ccc(-c3cnc(-c4cnc([C@@H]5CCCN5C(=O)[C@H](NC(=O)OC)c5ccccc5)[nH]4)cn3)cc2)[nH]1)c1ccccc1` [Example 152j-8, methyl ((1R)-2-((2S)-2-(5-(5-(4-(2-((2S)-1-((2R)-2-((methoxycarbonyl)amino)-2-phenylacetyl)-2-pyrrolidinyl)-1H-imidazol-5-yl)phenyl)-2-pyrazinyl)-1H-imidazol-2-yl)-1-pyrrolidinyl)-2-oxo-1-phenylethyl)carbamate], the EC50 is 0.001 to 0.999 nM.

Take `CN(C)[C@@H](C(=O)N1CCC[C@H]1c1ncc(-c2ccc(-c3ccc(-c4cnc([C@@H]5CCCN5C(=O)[C@@H](c5ccccc5)N(C)C)[nH]4)nn3)cc2)[nH]1)c1ccccc1` [Example 152j-9, (1R)-2-((2S)-2-(5-(6-(4-(2-((2S)-1-((2R)-2-(dimethylamino)-2-phenylacetyl)-2-pyrrolidinyl)-1H-imidazol-5-yl)phenyl)-3-pyridazinyl)-1H-imidazol-2-yl)-1-pyrrolidinyl)-N,N-dimethyl-2-oxo-1-phenylethanamine]: the EC50 is 1 to 99 nM. As to `COC(=O)N[C@@H](C(=O)N1CCC[C@H]1c1ncc(-c2ccc(-c3ccc(-c4cnc([C@@H]5CCCN5C(=O)[C@H](NC(=O)OC)c5ccccc5)[nH]4)nn3)cc2)[nH]1)c1ccccc1` [Example 152j-10, methyl ((1R)-2-((2S)-2-(5-(6-(4-(2-((2S)-1-((2R)-2-((methoxycarbonyl)amino)-2-phenylacetyl)-2-pyrrolidinyl)-1H-imidazol-5-yl)phenyl)-3-pyridazinyl)-1H-imidazol-2-yl)-1-pyrrolidinyl)-2-oxo-1-phenylethyl)carbamate], the concentration giving a half-maximal response (EC50) lay in the range of 1 to 99 nM. Under `C[C@H](NC(=O)[C@@H](c1ccccc1)N(C)C)c1ncc(-c2ccc(-c3ccc(-c4cnc([C@@H]5CCCN5C(=O)[C@@H](c5ccccc5)N(C)C)[nH]4)cn3)cc2)[nH]1` [Example 152j-11, (2R)-2-(dimethylamino)-N-((1S)-1-(5-(4-(5-(2-((2S)-1-((2R)-2-(dimethylamino)-2-phenylacetyl)-2-pyrrolidinyl)-1H-imidazol-5-yl)-2-pyridinyl)phenyl)-1H-imidazol-2-yl)ethyl)-2-phenylacetamide] stands 0.001 to 0.999 nM. Under `COC(=O)N[C@@H](C(=O)N[C@@H](C)c1ncc(-c2ccc(-c3ccc(-c4cnc([C@@H]5CCCN5C(=O)[C@H](NC(=O)OC)c5ccccc5)[nH]4)cn3)cc2)[nH]1)c1ccccc1` [Example 152j-12, methyl ((1R)-2-((2S)-2-(5-(6-(4-(2-((1S)-1-(((2R)-2-((methoxycarobnyl)amino)-2-phenylace-tyl)amino)eth-yl)-1H-imidazol-5-yl)phenyl)-3-pyridinyl)-1H-imidazol-2-yl)-1-pyrrolidinyl)-2-oxo-1-phenylethyl)carbamate] stands 0.001 to 0.999 nM.

Turning to `C[C@H](NC(=O)[C@@H](c1ccccc1)N(C)C)c1ncc(-c2ccc(-c3ccc(-c4cnc([C@@H]5CCCN5C(=O)[C@@H](c5ccccc5)N(C)C)[nH]4)nn3)cc2)[nH]1` [Example 152j-13, (2R)-2-(dimethylamino)-N-((1S)-1-(5-(4-(6-(2-((2S)-1-((2R)-2-(dimethylamino)-2-phenylacetyl)-2-pyrrolidinyl)-1H-imidazol-5-yl)-3-pyridazinyl)phenyl)-1H-imidazol-2-yl)ethyl)-2-phenylacetamide], the EC50 lay within 1 to 99 nM. Take `COC(=O)N[C@@H](C(=O)N[C@@H](C)c1ncc(-c2ccc(-c3ccc(-c4cnc([C@@H]5CCCN5C(=O)[C@H](NC(=O)OC)c5ccccc5)[nH]4)nn3)cc2)[nH]1)c1ccccc1` [Example 152j-14, methyl ((1R)-2-((2S)-2-(5-(6-(4-(2-((1S)-1-(((2R)-2-((methoxycarobnyl)amino)-2-phenylace-tyl)amino)eth-yl)-1H-imidazol-5-yl)phenyl)-3-pyridazinyl)-1H-imidazol-2-yl)-1-pyrrolidinyl)-2-oxo-1-phenylethyl)carbamate]: the EC50 was in the range of 1 to 99 nM.

With `COC(=O)N[C@@H](C(=O)N[C@@H](C)c1ncc(-c2ccc(-c3ncc(-c4cnc([C@@H]5CCCN5C(=O)[C@H](NC(=O)OC)c5ccccc5)[nH]4)cn3)cc2)[nH]1)c1ccccc1` [Example 152j-15, methyl ((1R)-2-((2S)-2-(5-(2-(4-(2-((1S)-1-(((2R)-2-((methoxycarbonyl)amino)-2-phenylace-tyl)amino)eth-yl)-1H-imidazol-5-yl)phenyl)-5-pyrimidinyl)-1H-imidazol-2-yl)-1-pyrrolidinyl)-2-oxo-1-phenylethyl)carbamate], the EC50 was in the range of 0.001 to 0.999 nM. Regarding `C[C@H](NC(=O)[C@@H](c1ccccc1)N(C)C)c1ncc(-c2cnc(-c3ccc(-c4cnc([C@@H]5CCCN5C(=O)[C@@H](c5ccccc5)N(C)C)[nH]4)cc3)nc2)[nH]1` [Example 152j-16, (2R)-2-(dimethylamino)-N-((1S)-1-(5-(2-(4-(2-((2S)-1-((2R)-2-(dimethylamino)-2-phenylacetyl)-2-pyrrolidinyl)-1H-imidazol-5-yl)phenyl)-5-pyrimidinyl)-1H-imidazol-2-yl)ethyl)-2-phenylacetamide], the EC50 was 0.001 to 0.999 nM. For the compound `COC(=O)N[C@@H](C(=O)N[C@@H](C)c1ncc(-c2cnc(-c3ccc(-c4cnc([C@@H]5CCCN5C(=O)[C@H](NC(=O)OC)c5ccccc5)[nH]4)cc3)nc2)[nH]1)c1ccccc1` [Example 152j-17, methyl ((1R)-2-((2S)-2-(5-(4-(5-(2-((1S)-1-(((2R)-2-((methoxycarbonyl)amino)-2-phenylace-tyl)amino)eth-yl)-1H-imidazol-5-yl)-2-pyrimidinyl)phenyl)-1H-imidazol-2-yl)-1-pyrrolidinyl)-2-oxo-1-phenylethyl)carbamate], the EC50 fell in the range of 0.001 to 0.999 nM. To `C[C@H](NC(=O)[C@@H](c1ccccc1)N(C)C)c1ncc(-c2cnc(-c3ccc(-c4cnc([C@@H]5CCCN5C(=O)[C@@H](c5ccccc5)N(C)C)[nH]4)cc3)cn2)[nH]1` [Example 152j-18, (2R)-2-(dimethylamino)-N-((1S)-1-(5-(5-(4-(2-((2S)-1-((2R)-2-(dimethylamino)-2-phenylacetyl)-2-pyrrolidinyl)-1H-imidazol-5-yl)phenyl)-2-pyrazinyl)-1H-imidazol-2-yl)ethyl)-2-phenylacetamide] belongs 0.001 to 0.999 nM; to `COC(=O)N[C@@H](C(=O)N[C@@H](C)c1ncc(-c2cnc(-c3ccc(-c4cnc([C@@H]5CCCN5C(=O)[C@H](NC(=O)OC)c5ccccc5)[nH]4)cc3)cn2)[nH]1)c1ccccc1` [Example 152j-19, methyl ((1R)-2-((2S)-2-(5-(4-(5-(2-((1S)-1-(((2R)-2-((methoxycarbonyl)amino)-2-phenylace-tyl)amino)eth-yl)-1H-imidazol-5-yl)-2-pyrazinyl)phenyl)-1H-imidazol-2-yl)-1-pyrrolidinyl)-2-oxo-1-phenylethyl)carbamate], 0.001 to 0.999 nM; to `C[C@@H](c1ncc(-c2ccc(-c3ncc(-c4cnc([C@@H]5CCCN5C(=O)[C@@H](c5ccccc5)N(C)C)[nH]4)cn3)cc2)[nH]1)N(C)C(=O)[C@@H](c1ccccc1)N(C)C` [Example 152j-20, (2R)-2-(dimethylamino)-N-((1S)-1-(5-(4-(5-(2-((2S)-1-((2R)-2-(dimethylamino)-2-phenylacetyl)-2-pyrrolidinyl)-1H-imidazol-5-yl)-2-pyrimidinyl)phenyl)-1H-imidaozl-2-yl)ethyl)-N-methyl-2-phenylacetamide], 1 to 99 nM. For `COC(=O)N[C@@H](C(=O)N(C)[C@@H](C)c1ncc(-c2ccc(-c3ncc(-c4cnc([C@@H]5CCCN5C(=O)[C@H](NC(=O)OC)c5ccccc5)[nH]4)cn3)cc2)[nH]1)c1ccccc1` [Example 152j-21, methyl ((1R)-2-((2S)-2-(5-(2-(4-(2-((1S)-1-(((2R)-2-((methoxycarbonyl)amino)-2-phenylacetyl)(methyl)amino)ethyl)-1H-imidazol-5-yl)phenyl)-5-pyrimidinyl)-1H-imidazol-2-yl)-1-pyrrolidinyl)-2-oxo-1-phenylethyl)carbamate], the 50% effective concentration (EC50) fell in the range of 0.001 to 0.999 nM. `COC(=O)N[C@@H](C(=O)N[C@@H](C)c1ncc(-c2ccc(-c3ccc(-c4cnc([C@@H]5CCCN5C(=O)[C@H](NC(=O)OC)c5ccccc5)[nH]4)cc3)nc2)[nH]1)c1ccccc1` [Example 152j-22, methyl ((1R)-2-((2S)-2-(5-(4-(5-(2-((1S)-1-(((2R)-2-((methoxycarbonyl)amino)-2-phenylace-tyl)amino)eth-yl)-1H-imidazol-5-yl)-2-pyridinyl)phenyl)-1H-imidazol-2-yl)-1-pyrrolidinyl)-2-oxo-1-phenylethyl)carbamate]: the EC50 lay in the range of 0.001 to 0.999 nM.
